Measured values: patent US20250091994A1, “RAS/RAF BINDING INHIBITOR COMPOUND” (NATIONAL UNIVERSITY CORPORATION KOBE UNIVERSITY, priority 2021, published 2025)
Read-outs that look alike come from different tables or passages of the source. Values belong to the compound of their own block, whether it stands above or below them.

Experiments:
[1] = target: GTPγS-bound human HRasG12V / human c-Raf-1 Ras binding domain (RBD) (Homo sapiens (Human), UniProt P01112, G12V); experiment: Ras-Raf binding inhibition ELISA
Sequence of GTPγS-bound human HRasG12V / human c-Raf-1 Ras binding domain (RBD) (P01112 whole entry G12V, the tested form may be a part): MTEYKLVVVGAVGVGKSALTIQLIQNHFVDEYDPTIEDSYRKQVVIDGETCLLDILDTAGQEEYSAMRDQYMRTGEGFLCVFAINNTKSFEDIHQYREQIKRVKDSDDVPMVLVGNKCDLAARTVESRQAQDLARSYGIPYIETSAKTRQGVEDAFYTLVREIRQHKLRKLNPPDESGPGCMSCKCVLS
Procedure: The in vitro Ras-Raf binding inhibitory activity of the compound of the present invention was evaluated by an ELISA method (Enzyme-Linked ImmunoSorbent Assay) described below.
Ras and Raf used upon the evaluation were purified and activated by the following method.
Using a pGEX6P-1 vector (GE Healthcare), human HRasG12V (full length, 1-189 amino acid residues) and human c-Raf-1 Ras binding domain (RBD) (50-131 amino acid residues) were each allowed to express as a fusion body with glutathione S-transferase (GST) in E. coli.
GST-HRasG12V-expressing cells were subjected to ultrasonication in a buffer {50 mM Tris-HCl pH 7.4, 150 mM NaCl, 5 mM MgCl2, 1 mM ethylenediaminetetraacetic acid (EDTA), 1 mM dithiothreitol (DTT), 10% glycerol, and 1% Triton-X100}, and were then centrifuged at 100,000×g for 30 minutes, so as to collect the supernatant as a Ras protein fraction. HRasG12V in the supernatant was immobilized on a glutathione-agarose resin, and GST was then cleaved with PreScission Protease (GE Healthcare) for purification. The obtained HRasG12V was mixed with guanosine 5′-O-[gamma-thio]triphosphate trisodium salt (GTPTS) of 1000 times higher concentration at 30° C. for 1 hour, and thereafter, 20 mM MgCl2 (final concentration) was added to stop the reaction and collect the GTPgS-loaded HRasG12V as a product.
On the other hand, GST-c-Raf-1 RBD-expressing cells were subjected to ultrasonication in the same buffer as described above, and were then centrifuged at 100,000×g for 30 minutes, so as to collected the supernatant as a GST-c-Raf-1 RBD protein fraction.
The in vitro Ras-Raf binding inhibitory activity of the compound of the present invention was evaluated by an ELISA method described below.
GST-c-Raf-1 RBD diluted with a Ras-Raf binding buffer (50 mM Tris-HCl pH7.4, 150 mM NaCl, 5 mM MgCl2, 1 mM EDTA, and 1% Triton-X100) was added to each well of a glutathione-coated 96-well plate (Thermo Fisher Scientific.), and was incubated at 30° C. for 1 hour, to immobilize Raf on the well. The unbound free Raf was eliminated by washing the well with the Ras-Raf binding buffer three times. Subsequently, GTPTS-bound HRasG12V diluted with the Ras-Raf binding buffer and each compound solution (final DMSO concentration: 10%) were applied to each well, and the resulting mixture was then incubated at 30° C. for 1 hour, so that Ras and Raf were allowed to bind to each other. Thereafter, the plate was washed with the Ras-Raf binding buffer twice, and was then subjected to a blocking treatment at room temperature for 20 minutes, using TBS-Tween {10 mM Tris-HCl pH 7.4, 150 mM NaCl, and 0.05% (w/v) Tween-20}-5% (w/v) bovine serum albumin (BSA). After that, an anti-HRas antibody (C-20, Santa Cruz) or an anti-HRas antibody (259, Santa Cruz), which had been 1000 times diluted with TBS-Tween-5% BSA, was added to the reaction mixture, and incubated at room temperature for 1 hours. After the treatment with the primary antibody, the plate was washed with TBS-Tween-5% BSA three times, and a horseradish peroxidase-labeled secondary antibody against rabbit immunoglobulin G (GE Healthcare) of 1000 times diluted with TBS-Tween-5% BSA, was added to the plate, followed by incubation at room temperature for 1 hour. After the treatment with the secondary antibody, the plate was washed with TBS-Tween-5% BSA three times, and a substrate solution (TMB) was then added to the plate, followed by incubation at room temperature for 15 minutes for coloration. Finally, 2 M H2SO4 was added to stop color development (coloration reaction kit: Nacalai Tesque). The absorbance at 450 nm (OD450) was measured, so that the color intensity was quantified. Inhibition by the test compound was determined according to the following equation: […]
IC50 (*) in which the anti-HRas antibody (259, Santa Cruz) was used

[2] = tested on: acute lymphoblastic leukemia cells CCRF-CEM (K-RasG12D); experiment: Cell growth inhibition, suspension cells CCRF-CEM; assay type: cell-based; conditions: Homo sapiens, 72 hours; for inhibition at 1 µM: read-out: CCRF-CEM (KRasG12D) % inhibition at 1 μM; for inhibition at 10 µM: read-out: CCRF-CEM (KRasG12D) % inhibition at 10 μM (**); for inhibition at 3.2 µM: read-out: CCRF-CEM (KRasG12D) % inhibition at 3.2 μM (***)
Procedure: (§1) The cell growth inhibitory activity of the compound of the present invention on human culture cells having active-type mutation in Ras was evaluated by the below-mentioned method using suspension cancer cells {acute lymphoblastic leukemia cells CCRF-CEM (K-RasG12D), promyelocytic leukemia cells HL60 (N-RasQ61L), acute lymphoblastic leukemia cells MOLT4 (N-RasG12C), and small cell lung cancer cells SHP77 (K-RasG12V)} and adherent cancer cells {large bowel cancer cells SW480 (K-RasG12V) and large bowel cancer cell SW620 (K-RasG12V)}.
(§2) (Case of suspension cells) The cells suspended in a medium containing 0.5% (v/v) fetal bovine serum (FBS) and each compound solution (final DMSO concentration: 1%) were seeded on a 96-well plate (2 to 4×10^4 cells/well), and the resulting mixture was then cultured at 37° C. in the presence of 5% CO2 for 72 hours.
(§3) Thereafter, the number of viable cells was measured using Cell Counting Reagent (Nacalai Tesque) in accordance with the manufacturer's instructions. Inhibition by the test compound was determined according to the following equation: […]

[3] = tested on: promyelocytic leukemia cells HL60 (N-RasQ61L); experiment: Cell growth inhibition, suspension cells HL60; assay type: cell-based; conditions: Homo sapiens, HL-60, 72 hours; for inhibition at 1 µM: read-out: HL-60 (NRasQ61L) % inhibition at 1 μM; for inhibition at 3.2 µM: read-out: HL-60 (NRasQ61L) % inhibition at 3.2 μM (****); for inhibition at 10 µM: read-out: HL-60 (NRasQ61L) % inhibition at 10 μM (***)
Procedure: as §1, §2, §3

[4] = tested on: large bowel cancer cell SW620 (K-RasG12V); experiment: Cell growth inhibition, adherent cells SW620; assay type: cell-based; conditions: Homo sapiens, SW-620, 72 hours; for inhibition at 3.2 µM: read-out: SW620 (KRasG12V) % inhibition at 3.2 μM (***)
Procedure: as §1
(Case of adherent cells) The cells suspended in a medium containing 10% FBS (1 to 2×10^4 cells/well) were seeded on a 96-well plate, and were then cultured at 37° C. in the presence of […]. Thereafter, the medium was exchanged with a medium containing […], to which each compound solution (final DMSO concentration: […]) had been added, and the cells were then cultured at 37° C. in the presence of […] for 72 hours.
as §3

[5] = anti-HRas antibody 259 (*), read-out: ELISA IC50 (μM): 1st Ab_259 (*)
[6] = anti-HRas antibody C-20, read-out: ELISA IC50 (μM): 1st Ab_C-20

IC50 [1, 5]: 1.2 µM
SMILES: CC(=O)N1/C(=C\c2nc3cc(CNC4CCOCC4)ccc3s2)C(=O)c2ccccc21 [Example 132, (Z)-1-acetyl-2-((5-(((tetrahydro-2H-pyran-4-yl)-amino)methyl)-benzo[d]thiazol-2-yl)methylene)-indolin-3-one]
inhibition at 1 µM [2]: 38% | inhibition at 1 µM [3]: 42%

IC50 [1, 6]: 11 µM
SMILES: CC(=O)N1/C(=C\c2ccc3cc(C(=O)N4CCC(N5CCOCC5)CC4)ccc3n2)C(=O)c2ccccc21 [Example 115, (Z)-1-acetyl-2-((6-(4-morpholino-piperidine-1-carbonyl)quinolin-2-yl)methylene)-indolin-3-one]
inhibition at 10 µM [2]: 98%

IC50 [1, 6]: 2.4 µM
SMILES: CC(=O)N1/C(=C\c2ccc3cc(CN(C)C4CCOCC4)ccc3n2)C(=O)c2ccccc21 [Example 71, (Z)-1-acetyl-2-((6-((methyl(tetra-hydro-2H-pyran-4-yl)amino)meth-yl)quinolin-2-yl)-methylene)indolin-3-one]
inhibition at 10 µM [2]: 82% | inhibition at 1 µM [3]: 41%

IC50 [1, 6]: 28.9 µM
SMILES: CC(=O)N1/C(=C\c2nc3ccc(-c4nnn[nH]4)cc3cc2-c2cccc3ccccc23)C(=O)c2ccccc21 [Example 214, (Z)-1-acetyl-2-((3-(naphthalen-1-yl)-6-(1H-tetrazol-5-yl)quinolin-2-yl)methylene)-indolin-3-one]
inhibition at 3.2 µM [2]: 96% | inhibition at 3.2 µM [3]: 36.7% | inhibition at 3.2 µM [4]: 92.2%

IC50 [1, 6]: 0.87 µM
SMILES: CC(=O)N1/C(=C\c2cc(-c3cccc4cccnc34)c3cc(C(=O)N4CCOCC4)ccc3n2)C(=O)c2ccccc21 [Example 91, (Z)-1-acetyl-2-((6-(morpholine-4-carbonyl)-[4,8′-biquinolin]-2-yl)-methylene)indolin-3-one]
inhibition at 3.3 µM ([3]; 3.3 μM (**), read-out: HL-60 (NRasQ61L) % inhibition at 3.3 μM (**)): 97% | inhibition at 1 µM ([4]; 1 μM, read-out: SW620 (KRasG12V) % inhibition at 1 μM): 70%

IC50 [1, 6]: 1.7 µM
SMILES: CC(=O)N1/C(=C\c2ccc3cc(CN4CCS(=O)(=O)CC4)ccc3n2)C(=O)c2ccccc21 [Example 107, (Z)-1-acetyl-2-((6-((1,1-dioxido-thiomorpholino)-methyl)quinolin-2-yl)methylene)-indolin-3-one]
inhibition at 10 µM [2]: 81% | inhibition at 10 µM [3]: 82%

inhibition at 1 µM [1]: 44.3% | IC50 [1, 6]: 0.6 µM
SMILES: CC(=O)N1/C(=C\c2cc(-c3ccccc3-c3ccccc3)c3cc(CNC4CCOCC4)ccc3n2)C(=O)c2ccccc21 [Example 143, (Z)-2-((4-([1,1′-biphenyl]-2-yl)-6-(((tetrahydro-2H-pyran-4-yl)amino)-methyl)quinolin-2-yl)methylene)-1-acetylindolin-3-one]
inhibition at 3.2 µM [3]: 97.2% | inhibition at 3.2 µM [4]: 79.3%

IC50 [1, 5]: 1.8 µM
SMILES: CC(=O)N1/C(=C\c2ccc3cc(CNC4CCS(=O)(=O)CC4)ccc3n2)C(=O)c2ccccc21 [Example 133]
inhibition at 10 µM [2]: 80% | inhibition at 10 µM [3]: 99%

IC50 [1, 6]: 2.7 µM
SMILES: CC(=O)N1/C(=C\c2ccc(OS(C)(=O)=O)cn2)C(=O)c2ccccc21 [Example 61, (Z)-6-((1-acetyl-3-oxoindolin-2-ylidene)methyl)-pyridin-3-yl methanesulfonate]
inhibition at 1 µM [2]: 35%

The next lines start with the compound.

SMILES: COCCN1CCN(C(=O)c2ccc3nc(/C=C4/C(=O)c5ccccc5N4C(C)=O)ccc3c2)CC1 [Example 116, (Z)-1-acetyl-2-((6-(4-(2-methoxy-ethyl)piperazine-1-carbonyl)quinolin-2-yl)methylene)-indolin-3-one]
inhibition at 10 µM [2]: 98%

SMILES: CC(=O)N1/C(=C\c2nc3ccc(C(=O)N4CCOCC4)cc3cc2-c2cnn(C)c2)C(=O)c2ccccc21 [Example 198, (Z)-1-acetyl-2-((3-(1-methyl-1H-pyrazol-4-yl)-6-(morpholine-4-carbonyl)quinolin-2-yl)methylene)-indolin-3-one]
inhibition at 3.2 µM [2]: 68.7% | inhibition at 3.2 µM [3]: 75.1% | inhibition at 3.2 µM [4]: 30.4%

SMILES: CC(=O)N1/C(=C\c2ccc3cc(CN4CCOCC4)ccc3n2)C(=O)c2ccccc21 [Example 35, (Z)-1-acetyl-2-((6-(morpholino-methyl)quinolin-2-yl)methylene)-indolin-3-one]
IC50 [1, 6]: 2.6 µM | inhibition at 1 µM [2]: 40%

SMILES: CC(=O)N1/C(=C\c2ccc3cc(C(=O)N4CCS(=O)(=O)CC4)ccc3n2)C(=O)c2ccccc21 [Example 60, (Z)-1-acetyl-2-((6-(1,1-dioxido-thiomorpholine-4-carbonyl)quinolin-2-yl)methylene)-indolin-3-one]
IC50 [1, 6]: 6 µM | inhibition at 10 µM [2]: 99%

SMILES: CC(=O)N1/C(=C/c2nc(C(=O)N3CCOCC3)cs2)C(=O)c2ccccc21 [Example 55, (E)-1-acetyl-2-((4-(morpholine-4-carbonyl)thiazol-2-yl)methylene)-indolin-3-one]
inhibition at 10 µM [2]: 78% | inhibition at 10 µM [3]: 96%

SMILES: CC(=O)N1/C(=C\c2ccc3cc(CO)ccc3n2)C(=O)c2ccccc21 [Example 33, (Z)-1-acetyl-2-((6-(hydroxymeth-yl)quinolin-2-yl)-methylene)indolin-3-one]
IC50 [1, 6]: 3.1 µM | inhibition at 1 µM [2]: 94%
